Key:
[1] = system: bEnd.3 cells; bEnd.3 co-incubated with U87 MG; experiment: Real-time transmembrane resistance of physiological and pathological blood-brain barrier models after SC79; type: cell-based; details: SC79 5 μg/mL
Procedure: FIG. 9: In vitro time-dependent regulation of transmembrane resistance of the blood-brain barrier by SC79. A Transwell model of brain microvascular endothelial cells bEnd.3 was used to mimic the physiological blood-brain barrier. A Transwell model of co-incubated brain microvascular endothelial cells bEnd.3 and glioma cell U87 MG was used to mimic the pathological blood-brain barrier. SC79 (5 μg/mL) was applied to the Transwell chamber. The cell transmembrane resistance was real-time monitored by a cell resistance meter (n=5).
Brain microvascular endothelial cells bEnd.3 were used as model cells of a blood-brain barrier. 0.5 mL suspension of well-grown bEnd.3 cells was inoculated in the chamber of a 12-well Transwell plate with a pore size of 0.4 μm at a cell density of 1×10^5/well. 1.5 mL of fresh culture medium was supplemented in the outer chamber. The culture medium was refreshed every other day. Incubation was continued for 15 days at 37° C. and 5% CO2. […]
The physiological blood-brain barrier and the pathological blood-brain barrier, as respectively constructed according to the procedures described in the above sections of 1 and 2 of Example 2, were used as a model, respectively. […] The cell transmembrane resistance was real-time monitored.

[2] = system: blood-brain barrier permeability; experiment: Evans blue permeation into the brain after SC79; type: in vivo, BABL/c nude mice
Procedure: FIG. 10: In vivo regulation of increase in the blood-brain barrier permeability and increase in the amount of Evans blue permeated into the brain by SC79. SC79 was injected into tail veins of tumor-bearing animals at an administration dose of 5 mg/kg and 10 mg/kg, respectively. After 24 hours, an Evans blue solution was injected into tail veins at an administration dose of 5 mg/kg. After 4 hours, the intact brain of the nude mice was taken by cardiac perfusion.
FIG. 11: In vivo time-dependent regulation of increase in the blood-brain barrier permeability by SC79. SC79 was injected into tail veins of tumor-bearing animals at an administration dose of 5 mg/kg and 10 mg/kg, respectively. After 0 hour, 0.5 hour, and 24 hours, an Evans blue solution was injected into tail veins at an administration dose of 5 mg/kg. After 4 hours, the intact brain of the nude mice was taken by cardiac perfusion.
Male BABL/c nude mice (20+2 g) were used as the model animals. SC79 diluted with 0.2% injection grade Tween 80 solution was injected into tail veins at an administration dose of 5 mg/kg, 10 mg/kg. After 24 hours, an Evans blue solution was injected into tail veins at an administration dose of 5 mg/kg. After 4 hours, the intact brain of the nude mice was taken by cardiac perfusion. The distribution intensity of Evans blue in the brain tissue was qualitatively observed with a small animal live imaging instrument.
Male BABL/c nude mice (20±2 g) were used as the model animals. SC79 diluted with 0.2% injection grade Tween 80 solution was injected into tail veins at an administration dose of 5 mg/kg, 10 mg/kg. After 0.5 hour, and after 24 hours, an Evans blue solution was injected into tail veins at an administration dose of 5 mg/kg. After 4 hours, the intact brain of the nude mice was taken by cardiac perfusion. The distribution intensity of Evans blue in the brain tissue was qualitatively observed with a small animal live imaging instrument.

CCOC(=O)C1=C(N)Oc2ccc(Cl)cc2C1C(C#N)C(=O)OCC (centres unmarked) [SC79]
effect in increasing the blood-brain barrier permeability ([1]; after 24 hours of the drug action): most significant effect
cell transmembrane resistance over time ([1]; physiological and pathological models, real-time): decreased in a time-dependent manner
amount of Evans blue permeated into the brain ([2]; SC79 5 mg/kg, 10 mg/kg tail vein, Evans blue after 24 hours, vs tumor-bearing control group): increased
amount of Evans blue permeated into the brain ([2]; SC79 tail vein, Evans blue 0.5 hour after SC79): increased
amount of Evans blue permeated into the brain ([2]; SC79 tail vein, Evans blue 24 hours after SC79): the highest

Source: patent publication US12370167B2, “Blood-brain barrier permeability regulator and use thereof” (ZHEJIANG UNIVERSITY, priority 2019, dated 2025)
